Source: patent US20230279023A1, “N/O-Linked Degrons and Degronimers for Protein Degradation” (C4 Therapeutics, Inc., priority 2019, published 2023)
Counter-ions that a name gives are not always drawn.

Target: CRBN-DDB1 (Homo sapiens (Human), UniProt Q96SW2)
Test: Fluorescence polarization (FP) assay for compound ligand binding to CRBN-DDB1
Details: FP displacement of (−)-Thalidomide-Alexa Fluor or Pomalidomide-fluorescein probe, 400 nM CRBN-DDB1, 5 nM probe
Method: Measuring compound ligand binding to CRBN-DDB1 was carried out using an established sensitive and quantitative in vitro fluorescence polarization (FP) based binding assay. […] Compounds were dispensed from serially diluted DMSO stock into black 384-well compatible fluorescence polarization plates using an Echo acoustic dispenser. Compound binding to CRBN-DDB1 was measured by displacement of either a (−)-Thalidomide-Alexa Fluor® or Pomalidomide-fluorescein conjugated probe dye. […] Matching control wells excluding CRBN-DDB1 were used to correct for background fluorescence. Plates were read on an Envision plate reader with appropriate FP filter sets. The corrected S (perpendicular) and P (parallel) values were used to calculate fluorescence polarization (FP) with the following equation: […]

[1] = Compounds of the Present Invention
[2] = Additional Compounds of the Present Invention

Sequence of CRBN-DDB1 (Q96SW2 whole entry): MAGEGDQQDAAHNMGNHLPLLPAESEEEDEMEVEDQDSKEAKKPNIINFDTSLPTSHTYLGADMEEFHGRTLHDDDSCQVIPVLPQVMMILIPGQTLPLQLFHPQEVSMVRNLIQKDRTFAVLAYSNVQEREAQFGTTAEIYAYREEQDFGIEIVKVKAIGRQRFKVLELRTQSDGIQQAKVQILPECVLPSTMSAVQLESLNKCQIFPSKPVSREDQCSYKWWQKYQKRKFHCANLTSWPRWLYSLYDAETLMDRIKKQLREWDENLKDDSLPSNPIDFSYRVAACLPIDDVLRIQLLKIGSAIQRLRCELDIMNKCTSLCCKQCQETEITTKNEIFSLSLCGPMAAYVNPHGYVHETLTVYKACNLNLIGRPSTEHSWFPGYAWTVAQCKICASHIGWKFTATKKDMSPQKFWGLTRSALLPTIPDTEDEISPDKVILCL
Sequence of CRBN-DDB1 (Q16531 whole entry partner): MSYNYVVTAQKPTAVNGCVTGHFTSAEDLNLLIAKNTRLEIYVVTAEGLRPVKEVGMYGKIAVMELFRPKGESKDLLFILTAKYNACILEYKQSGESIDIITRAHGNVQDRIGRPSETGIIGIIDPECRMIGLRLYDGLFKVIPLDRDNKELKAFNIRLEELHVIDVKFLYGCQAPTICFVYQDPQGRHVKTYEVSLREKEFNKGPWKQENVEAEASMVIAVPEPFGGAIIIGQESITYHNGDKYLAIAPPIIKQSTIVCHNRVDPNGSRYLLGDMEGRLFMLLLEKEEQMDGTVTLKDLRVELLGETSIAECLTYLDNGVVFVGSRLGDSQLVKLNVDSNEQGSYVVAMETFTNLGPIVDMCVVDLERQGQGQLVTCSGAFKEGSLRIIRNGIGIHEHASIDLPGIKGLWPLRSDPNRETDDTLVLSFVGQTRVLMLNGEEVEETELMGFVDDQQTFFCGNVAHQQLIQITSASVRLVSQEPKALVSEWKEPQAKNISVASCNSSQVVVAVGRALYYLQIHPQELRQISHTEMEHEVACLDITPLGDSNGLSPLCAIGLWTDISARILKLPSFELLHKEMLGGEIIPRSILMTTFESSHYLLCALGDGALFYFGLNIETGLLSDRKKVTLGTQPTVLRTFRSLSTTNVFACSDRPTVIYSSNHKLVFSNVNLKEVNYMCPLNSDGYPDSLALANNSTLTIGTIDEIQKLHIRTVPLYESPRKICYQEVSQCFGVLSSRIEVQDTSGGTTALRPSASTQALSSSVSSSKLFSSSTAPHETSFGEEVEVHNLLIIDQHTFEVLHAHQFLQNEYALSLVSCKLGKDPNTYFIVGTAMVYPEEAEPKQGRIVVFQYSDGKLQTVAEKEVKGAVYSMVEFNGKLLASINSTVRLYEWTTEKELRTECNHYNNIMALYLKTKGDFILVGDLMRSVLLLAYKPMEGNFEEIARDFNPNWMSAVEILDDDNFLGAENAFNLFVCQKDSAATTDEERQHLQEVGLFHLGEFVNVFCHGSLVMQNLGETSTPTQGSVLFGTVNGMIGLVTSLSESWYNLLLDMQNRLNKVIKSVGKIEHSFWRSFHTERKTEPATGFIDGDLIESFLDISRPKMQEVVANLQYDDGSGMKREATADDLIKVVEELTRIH

SMILES: CN(c1ccccc1)C1CCC(=O)NC1=O (stereo not drawn) [Compound 1]
- Kd [1]: < 10 µM

SMILES: O=C1CCC(Nc2cccc(-c3ccccc3)c2)C(=O)N1 (stereo not drawn) [Compound 3]
- Kd [1]: < 10 µM

SMILES: COc1cc(Cl)c(C)cc1NC1CCC(=O)NC1=O (stereo not drawn) [Compound 4]
- Kd [1]: < 10 µM

SMILES: O=C1CCC(Nc2ccccc2-c2ccccc2)C(=O)N1 (stereo not drawn) [Compound 5]
- Kd [1]: < 10 µM

SMILES: O=C1CCC(Nc2ccc(-c3ccccc3)cc2)C(=O)N1 (stereo not drawn) [Compound 6]
- Kd [1]: < 10 µM

SMILES: COc1ccc(NC2CCC(=O)NC2=O)cc1F (stereo not drawn) [Compound 7]
- Kd [1]: < 10 µM

SMILES: O=C1CCC(Nc2cccc(F)c2)C(=O)N1 (stereo not drawn) [Compound 9]
- Kd [1]: < 10 µM

SMILES: COc1cc(F)ccc1NC1CCC(=O)NC1=O (stereo not drawn) [Compound 10]
- Kd [1]: < 10 µM

SMILES: COc1ccc(NC2CCC(=O)NC2=O)c(F)c1 (stereo not drawn) [Compound 11]
- Kd [1]: < 10 µM

SMILES: Cc1ccc(NC2CCC(=O)NC2=O)cc1C#N (stereo not drawn) [Compound 12]
- Kd [1]: < 10 µM

SMILES: COc1cccc(NC2CCC(=O)NC2=O)c1 (stereo not drawn) [Compound 13]
- Kd [1]: < 10 µM

SMILES: COc1ccccc1NC1CCC(=O)NC1=O (stereo not drawn) [Compound 15]
- Kd [1]: < 10 µM

SMILES: COc1cccc(N(C)C2CCC(=O)NC2=O)c1 (stereo not drawn) [Compound 16]
- Kd [1]: < 10 µM

SMILES: Cc1cccc(N(C)C2CCC(=O)NC2=O)c1 (stereo not drawn) [Compound 18]
- Kd [1]: < 10 µM

SMILES: O=C1CCC(Nc2cc(Cl)ccc2O)C(=O)N1 (stereo not drawn) [Compound 19]
- Kd [1]: < 10 µM

SMILES: COc1ccc(N(C)C2CCC(=O)NC2=O)cc1 (stereo not drawn) [Compound 20]
- Kd [1]: < 10 µM

SMILES: O=C1CCC(Nc2cccc(-c3ccccn3)c2)C(=O)N1 (stereo not drawn) [Compound 22]
- Kd [1]: < 10 µM

SMILES: O=C1CCC(Nc2ccccc2Oc2ccccc2)C(=O)N1 (stereo not drawn) [Compound 23]
- Kd [1]: < 10 µM

SMILES: O=C1CCC(Nc2ccc(C(F)(F)F)cc2)C(=O)N1 (stereo not drawn) [Compound 26]
- Kd [1]: < 10 µM

SMILES: O=C1CCC(Nc2ccc(CN3CCOCC3)cc2)C(=O)N1 (stereo not drawn) [Compound 27]
- Kd [1]: < 10 µM

SMILES: O=C1CCC(Nc2ccc(Oc3ccccc3)cc2)C(=O)N1 (stereo not drawn) [Compound 28]
- Kd [1]: < 10 µM

SMILES: COc1cc(NC2CCC(=O)NC2=O)cc(C(F)(F)F)c1 (stereo not drawn) [Compound 29]
- Kd [1]: < 10 µM

SMILES: O=C1CCC(Nc2cccc(Oc3ccccc3)c2)C(=O)N1 (stereo not drawn) [Compound 30]
- Kd [1]: < 10 µM

SMILES: CCCOc1ccc(NC2CCC(=O)NC2=O)cc1 (stereo not drawn) [Compound 31]
- Kd [1]: < 10 µM

SMILES: CN(c1ccc(Br)cc1)C1CCC(=O)NC1=O (stereo not drawn) [Compound 32]
- Kd [1]: < 10 µM

SMILES: CN(c1cccc(F)c1)C1CCC(=O)NC1=O (stereo not drawn) [Compound 33]
- Kd [1]: < 10 µM

SMILES: CN(c1cccc(Cl)c1)C1CCC(=O)NC1=O (stereo not drawn) [Compound 34]
- Kd [1]: < 10 µM

SMILES: O=C1CCC(Nc2cccc(C(F)(F)F)c2)C(=O)N1 (stereo not drawn) [Compound 35]
- Kd [1]: < 10 µM

SMILES: COc1ccc(NC2CCC(=O)NC2=O)c(C)c1 (stereo not drawn) [Compound 36]
- Kd [1]: < 10 µM

SMILES: O=C1CCC(Nc2ccc(Cl)cc2)C(=O)N1 (stereo not drawn) [Compound 37]
- Kd [1]: < 10 µM

SMILES: Cc1ccc(NC2CCC(=O)NC2=O)cc1 (stereo not drawn) [Compound 38]
- Kd [1]: < 10 µM

SMILES: O=C1CCC(Nc2cccc(-c3cnco3)c2)C(=O)N1 (stereo not drawn) [Compound 39]
- Kd [1]: < 10 µM

SMILES: O=C1CCC(Nc2cccc(Cl)c2)C(=O)N1 (stereo not drawn) [Compound 40]
- Kd [1]: < 10 µM

SMILES: CC(C)(C)c1ccccc1NC1CCC(=O)NC1=O (stereo not drawn) [Compound 41]
- Kd [1]: < 10 µM

SMILES: COc1ccc(C)cc1NC1CCC(=O)NC1=O (stereo not drawn) [Compound 42]
- Kd [1]: < 10 µM

SMILES: O=C1CCC(Nc2ccc(F)cc2Cl)C(=O)N1 (stereo not drawn) [Compound 43]
- Kd [1]: < 10 µM

SMILES: COc1ccc(Cl)c(NC2CCC(=O)NC2=O)c1 (stereo not drawn) [Compound 44]
- Kd [1]: < 10 µM

SMILES: O=C1CCC(Nc2cc(F)ccc2Cl)C(=O)N1 (stereo not drawn) [Compound 45]
- Kd [1]: < 10 µM

SMILES: COc1ccc(NC2CCC(=O)NC2=O)cc1Cl (stereo not drawn) [Compound 46]
- Kd [1]: < 10 µM

SMILES: COc1cc(Cl)ccc1NC1CCC(=O)NC1=O (stereo not drawn) [Compound 47]
- Kd [1]: < 10 µM

SMILES: COc1ccc(Cl)cc1NC1CCC(=O)NC1=O (stereo not drawn) [Compound 48]
- Kd [1]: < 10 µM

SMILES: O=C1CCC(Nc2ccccc2Cl)C(=O)N1 (stereo not drawn) [Compound 49]
- Kd [1]: < 10 µM

SMILES: Cc1ccccc1NC1CCC(=O)NC1=O (stereo not drawn) [Compound 50]
- Kd [1]: < 10 µM

SMILES: Cn1ccc2cc(NC3CCC(=O)NC3=O)ccc21 (stereo not drawn) [Compound 51]
- Kd [1]: < 10 µM

SMILES: COc1ccc(NC2CCC(=O)NC2=O)cc1 (stereo not drawn) [Compound 52]
- Kd [1]: < 10 µM

SMILES: O=C1CCC(Nc2ccccc2F)C(=O)N1 (stereo not drawn) [Compound 53]
- Kd [1]: < 10 µM

SMILES: O=C1CCC(Nc2c(F)cccc2Cl)C(=O)N1 (stereo not drawn) [Compound 54]
- Kd [1]: < 10 µM

SMILES: O=C1CCC(Nc2ccccc2OC(F)F)C(=O)N1 (stereo not drawn) [Compound 55]
- Kd [1]: < 10 µM

SMILES: N#Cc1cccc(NC2CCC(=O)NC2=O)c1 (stereo not drawn) [Compound 56]
- Kd [1]: < 10 µM

SMILES: CN(c1cccc(Br)c1)C1CCC(=O)NC1=O (stereo not drawn) [Compound 57]
- Kd [1]: < 10 µM

SMILES: CN(c1cccc(C(F)(F)F)c1)C1CCC(=O)NC1=O (stereo not drawn) [Compound 58]
- Kd [1]: < 10 µM

SMILES: CN(c1ccc(C(F)(F)F)cc1)C1CCC(=O)NC1=O (stereo not drawn) [Compound 59]
- Kd [1]: < 10 µM

SMILES: CN(c1ccc(Cl)c(Cl)c1)C1CCC(=O)NC1=O (stereo not drawn) [Compound 60]
- Kd [1]: < 10 µM

SMILES: Cc1ccccc1N(C)C1CCC(=O)NC1=O (stereo not drawn) [Compound 61]
- Kd [1]: < 10 µM

SMILES: COc1c(Cl)cccc1NC1CCC(=O)NC1=O (stereo not drawn) [Compound 62]
- Kd [1]: < 10 µM

SMILES: O=C1CCC(Nc2cccc(N3CCOCC3)c2)C(=O)N1 (stereo not drawn) [Compound 64]
- Kd [1]: < 10 µM

SMILES: Cc1cccc(NC2CCC(=O)NC2=O)c1C#N (stereo not drawn) [Compound 65]
- Kd [1]: < 10 µM

SMILES: CN1CCN(c2ccc(NC3CCC(=O)NC3=O)cc2)CC1 (stereo not drawn) [Compound 66]
- Kd [1]: < 10 µM

SMILES: O=C1CCC(Nc2ccc(N3CCOCC3)cc2)C(=O)N1 (stereo not drawn) [Compound 67]
- Kd [1]: < 10 µM

SMILES: Cc1ccc(C#N)cc1NC1CCC(=O)NC1=O (stereo not drawn) [Compound 68]
- Kd [1]: > 100 µM

SMILES: COc1ccc(NC2CCC(=O)NC2=O)c(OC)c1 (stereo not drawn) [Compound 70]
- Kd [1]: < 10 µM

SMILES: O=C1CCC(Nc2cccc3ccccc23)C(=O)N1 (stereo not drawn) [Compound 77]
- Kd [1]: < 10 µM

SMILES: CC(C)(C)OC(=O)N1CCc2cc(NC3CCC(=O)NC3=O)ccc2C1 (stereo not drawn) [Compound 79]
- Kd [1]: < 10 µM

SMILES: CC(C)(C)OC(=O)N1CCC(c2ccc(NC3CCC(=O)NC3=O)cc2)CC1 (stereo not drawn) [Compound 81]
- Kd [1]: < 10 µM

SMILES: CC(C)(C)OC(=O)N1CCN(c2cccc(NC3CCC(=O)NC3=O)c2)CC1 (stereo not drawn) [Compound 82]
- Kd [1]: < 10 µM

SMILES: O=C1CCC(Nc2ccc(C3CCNCC3)cc2)C(=O)N1 (stereo not drawn) [Compound 85]
- Kd [1]: < 10 µM

SMILES: O=C1CCC(Nc2cccc(N3CCNCC3)c2)C(=O)N1 (stereo not drawn) [Compound 86]
- Kd [1]: < 10 µM

SMILES: CN(c1cccc(N2CCN(C(=O)OC(C)(C)C)CC2)c1)C1CCC(=O)NC1=O (stereo not drawn) [Compound 88]
- Kd [1]: < 10 µM

SMILES: CC(C)(C)OC(=O)n1cc(C#N)c(NC2CCC(=O)NC2=O)n1 (stereo not drawn) [Compound 95]
- Kd [1]: > 100 µM

SMILES: N#Cc1c[nH]nc1NC1CCC(=O)NC1=O (stereo not drawn) [Compound 96]
- Kd [1]: > 100 µM

SMILES: CN(C1COC1)C1CCC(=O)NC1=O (stereo not drawn) [Compound 97]
- Kd [1]: > 100 µM

SMILES: O=C1CCC(NC2CC(=O)N(c3ccccc3)C2)C(=O)N1 (stereo not drawn) [Compound 99]
- Kd [1]: > 100 µM

SMILES: CN(C1CNC1)C1CCC(=O)NC1=O (stereo not drawn) [Compound 101]
- Kd [1]: > 100 µM

SMILES: CN1CC(N(C)C2CCC(=O)NC2=O)C1 (stereo not drawn) [Compound 102]
- Kd [1]: > 100 µM

SMILES: CN1CCC(N(C)C2CCC(=O)NC2=O)CC1=O (stereo not drawn) [Compound 106]
- Kd [1]: > 100 µM

SMILES: CN(CC(=O)O)C1CCC(=O)NC1=O (stereo not drawn) [Compound 107]
- Kd [1]: > 100 µM

SMILES: CNC(=O)CN(C)C1CCC(=O)NC1=O (stereo not drawn) [Compound 109]
- Kd [1]: > 100 µM

SMILES: CC(C)(C)OC(=O)N1CCN(C2=CC(=O)NC2=O)CC1 [Compound 111]
- Kd [1]: > 100 µM

SMILES: O=C1C=C(Nc2ccccc2)C(=O)N1 [Compound 112]
- Kd [1]: > 100 µM

SMILES: O=C1CCC(N2CCc3cccnc32)C(=O)N1 (stereo not drawn) [Compound 118]
- Kd [1]: > 100 µM

SMILES: COC(=O)c1cccnc1NC1CCC(=O)NC1=O (stereo not drawn) [Compound 122]
- Kd [1]: > 100 µM

SMILES: CN1CCN(c2ccc(OC3CCC(=O)NC3=O)cc2)CC1 (stereo not drawn) [Compound 126]
- Kd [1]: < 10 µM

SMILES: CC(C)(C)OC(=O)N1CCN(c2ccc(OC3CCC(=O)NC3=O)cc2)CC1 (stereo not drawn) [Compound 132, 4-[4-(2,6-Dioxo-piperidin-3-yloxy)-phenyl]-piperazine-1-carboxylic acid tert-butyl ester]
- Kd [2]: < 10 µM

SMILES: O=C1CCC(Oc2ccc(N3CCNCC3)cc2)C(=O)N1 (stereo not drawn) [Compound 133, 3-(4-Piperazin-1-yl-phenoxy)-piperidine-2,6-dione hydrochloride]
- Kd [2]: < 10 µM

SMILES: O=C1CCC(OC2CCN(c3ccccc3)CC2)C(=O)N1 (stereo not drawn) [Compound 134, 3-(1-Phenyl-piperidin-4-yloxy)-piperidine-2,6-dione]
- Kd [2]: > 100 µM

SMILES: O=C1CCC(Oc2ccc3ccccc3c2)C(=O)N1 (stereo not drawn) [Compound 135]
- Kd [2]: < 10 µM

SMILES: O=C1CCC(Oc2ccccc2C(=O)N2CCCC2)C(=O)N1 (stereo not drawn) [Compound 136]
- Kd [2]: > 100 µM
